Source: ChEMBL document CHEMBL3507680, “University of Dundee, Gates Library screen for HepG2 cell viability”

experiment: Human HepG2 cell viability assay in 384 well format; format: toxicity, cell-based; parameters: dose 125 nL, time 70.5 hour; cytotoxicity at 70.5 h: concentration not given beside the values; conditions: HepG2 cells, read-out: Inhibition

Point of comparison: `COc1ccc(C(=O)NCC(c2cccn2C)N2CCCC2)c(OC)c1` (stereo unspecified), cytotoxicity at 70.5 h 14.2%. Against it:
- O=C(NCCCN1CCOCC1)c1cc(-c2ccc3c(c2)CCO3)n[nH]1 — lower, -0.337%
- CC(C)S(=O)(=O)c1nnc(CCNC(=O)OC(C)(C)C)o1 — higher, 29.5%
- CCC(C)[C@H](NC(=O)c1cc(Br)ccc1-n1cnnn1)C(=O)OC (stereo partly specified) — higher, 42%
- O=C(NCC1CC1)c1nc(COc2ccc3c(c2)OCO3)no1 — lower, 0.603%
- O=C(NCCc1c[nH]cn1)c1ccc2c(c1)C(=O)N(C1CC1)C2=O — lower, 3.29%
- O=C1N(c2ccc(F)cc2)Cc2nc(=O)n(Cc3cccc(Cl)c3)n21 — lower, -0.858%
- O=C(COc1coc(CN2CCCCC2)cc1=O)Nc1ccccc1Cl — lower, -9.78%
- CC1=Nc2c(c(=O)[nH]n2C(C)C)C(c2ccccc2)S1 (stereo unspecified) — lower, -3.86%
- CC1=Nc2c(c(=O)[nH]n2C(C)C)C(c2cccs2)S1 (stereo unspecified) — lower, -8.68%
- COc1ccc2nnc(CCCC(=O)NCCC3=CCCCC3)n2n1 — lower, -4.24%
- O=c1cc2c(nn1CN1CCN(c3cccc(Cl)c3)CC1)CCC2 — lower, -6.87%
- CC1=Nc2c(c(=O)[nH]n2C2CCOCC2)C(c2cccc(Br)c2)S1 (stereo unspecified) — lower, 4.78%
- COc1ccc2nnc(CCCC(=O)NCc3cccn3C)n2n1 — lower, 6.5%
- O=C1CSC(c2ccsc2)c2c(n(C3CCOCC3)[nH]c2=O)N1 (stereo unspecified) — higher, 27.6%
- CNC(=O)c1cccnc1Oc1ccccc1 — lower, -5.8%
- CCOC(=O)CN1CCC2(CC1)CC(=O)c1ccc(OC)cc1O2 — lower, 2.89%
- CCc1ccc(NC(=O)C2OC(c3cccs3)=NN2C(C)=O)cc1 (stereo unspecified) — higher, 40.2%
- O=C(Cc1c(F)cccc1F)N1CCN(CC(=O)N2CCCC2)CC1 — lower, -5.05%
- Cc1n[nH]c2c1C(c1ccsc1)SCC(=O)N2 (stereo unspecified) — lower, 8.67%
- COc1ccc(C(=O)N2CCCC2c2ccco2)cc1OC (stereo unspecified) — lower, -12.1%
- CCOc1nc2cccnc2n(CC(=O)NCCOC)c1=O — lower, -14.5%
- CCc1ccc(NC(=O)c2cnc(N3CCN(C)CC3)nc2C)cc1 — higher, 36.8%
- COc1ccc(OC)c(NC(=O)c2nc3ccccc3n(C)c2=O)c1 — lower, -7.65%
- COc1cccc(CN2CCCCCC2c2cccc(C)c2)c1O (stereo unspecified) — lower, 6.46%
- COC(=O)c1cccc(C(=O)N2CCN(c3ccccc3F)CC2)n1 — higher, 28.8%
- O=C(Cn1ccc2sccc2c1=O)NCc1ccc2c(c1)OCO2 — lower, -6.54%
- CCCS(=O)(=O)Nc1ccc2c(c1)OCC(C)(C)C(=O)N2C — lower, 7.24%
- COc1cccc(CNc2c(C)cnc3c2c(=O)n(C)c(=O)n3C)c1 — higher, 35.6%
- Cc1cnc2c(c1NCc1ccncc1)c(=O)n(C)c(=O)n2C — lower, -2.95%
- CCc1cnc2c(c1Nc1ccc(OC)cc1)c(=O)n(C)c(=O)n2C — higher, 21.4%
- CCc1cnc2c(c1NCc1cccc(OC)c1)c(=O)n(C)c(=O)n2C — higher, 33.7%
- COCCNC(=O)Cn1nc(C(C)C)c2cnn(C(C)(C)C)c2c1=O — lower, -3.75%
- CCCC(=O)Nc1sc(C(=O)OCC)c(C)c1C#N — lower, -2.39%
- CCCc1cc(=O)n(CC(N)=O)c(-n2nc(C)cc2C)n1 — lower, -4.18%
- CC1CCN(S(=O)(=O)c2cccn(CC(=O)NC3CCCC3)c2=O)CC1 — lower, -3.39%
- COc1ccc(Br)c(C(=O)NCC2CCN(S(=O)(=O)C3CC3)CC2)c1 — higher, 16.8%
- CCOc1ccc(NC(=O)CN2CCN(c3nccn3C)CC2)cc1 — lower, -2.94%
- Cn1cccc1C(CNC(=O)c1ccc(F)cc1F)N1CCCCCC1 (stereo unspecified) — higher, 34.1%
- COc1ccc(C)cc1S(=O)(=O)NCC(c1cccn1C)N(C)C (stereo unspecified) — lower, -3.74%
- Cc1cccc(C(=O)NCCCN2CCN(c3ccccc3)CC2)c1 — lower, 7.06%
- COc1ncccc1C(=O)N1CCC(c2nnc(C3CC3)o2)CC1 — lower, 4.57%
- COc1nn(C)cc1C(=O)N1CCC(c2nnc(C3CC3)o2)CC1 — lower, -1.01%
- O=C(NCC(Cc1cccc(F)c1)N1CCCC1=O)c1ccccc1 (stereo unspecified) — lower, 4.11%
- O=S(=O)(Cc1ccccc1)NCC1CCN(c2cnccn2)CC1 — lower, 4.32%
- Cc1nc(CNC(=O)C(C)Oc2ccccc2F)no1 (stereo unspecified) — lower, -5.02%
- COc1ccc(OC)c([C@@H]2N[C@H](c3nccs3)Cc3ccsc32)c1 — lower, -11.6%
- CCOc1cc([C@H]2N[C@@H](c3nc(C)cs3)Cc3ccsc32)ccc1OC — lower, -6.01%
- CCS(=O)(=O)N1C[C@@H](C(=O)NC(C)C)[C@@]2(Cc3ccccc3C(=O)N2)C1 — lower, -11.3%
- COc1cc(C(=O)NC(C)(C)CN2CCN(C)CC2)c2ccccc2n1 — lower, -11.5%
- OC1CCCOC12CCN(CCCOc1ccccc1F)CC2 (stereo unspecified) — lower, -10.9%
- CC(C)(C)NC(=O)[C@@H]1CNC[C@]12Cc1ccccc1C(=O)N2 — lower, -4.03%
- CCC1CCCCN1C(=O)Cn1nc(-c2ccc(C)o2)cc(N)c1=O (stereo unspecified) — lower, -15.1%
- CN1C[C@@H](C(=O)NC2CC2)[C@@]2(COc3ccc(F)cc3C2=O)C1 — lower, 12.2%
- CN(C)Cc1cnc(C2CCN(C(=O)c3cccc(F)c3)C2)[nH]1 (stereo unspecified) — higher, 20.2%
- CN(C)Cc1cnc(C2CCN(C(=O)c3cc(F)cc(F)c3)C2)[nH]1 (stereo unspecified) — lower, -2.53%
- CNC(=O)C1(Cc2cc(C(C)C)no2)CCN(Cc2cccnc2)C1 (stereo unspecified) — lower, -5.78%
- CO[C@H]1C[C@@H]2CN(C(=O)c3cccc4c3OCCO4)C[C@@H]2C1 — higher, 20.7%
- Cc1noc(C)c1-c1cc(CCC2CN(C(=O)C(C)C)CCO2)ncn1 (stereo unspecified) — lower, -3.99%
- O[C@H]1CN(CCCOc2ccccc2F)CC[C@@]12CCCO2 — lower, -2.73%
- Cc1cc(C(F)F)nn1C(C)C(=O)NCc1ncc[nH]1 (stereo unspecified) — lower, -1.75%
- Cc1cncc(C2CCN(Cc3ccsc3)CC2)n1 — lower, 4.8%
- CNC(=O)C1CN(C(=O)c2cccnc2)CCN(S(C)(=O)=O)C1 (stereo unspecified) — lower, -4.31%
- Cc1nccc(N(C)Cc2ncc(-c3ccccc3C(=O)O)s2)n1 — lower, -1.97%
- CS(=O)(=O)N1CCC(c2cnc(-c3cn[nH]c3)cn2)CC1 — lower, 0.854%
- CNC(=O)C1CN(C)CCN(C(=O)CCn2nnc3ccccc32)C1 (stereo unspecified) — lower, 0.266%
- Cn1ccc(C(=O)N2CCc3[nH]nc(Nc4ccccc4)c3C2)n1 — lower, 1.75%
- CNC(=O)C1CN(C(=O)c2cccs2)CCN(S(C)(=O)=O)C1 (stereo unspecified) — lower, -2.89%
- CC(=O)N1CCOCC(Cc2ccc3c(ccn3C(C)=O)c2)C1 (stereo unspecified) — lower, -2.4%
- c1cncc(CN2CCCCC2c2ccc(Nc3cnccn3)nc2)c1 (stereo unspecified) — lower, -5.32%
- O=C(Cc1cccnc1)N1CCC(c2nnc(-c3ccccn3)o2)CC1 — higher, 25.5%
- CNC(=O)C1CN(C(=O)c2ccccc2)Cc2cn(C)nc21 (stereo unspecified) — higher, 26.9%
- COc1cc(CCC(=O)N2CCC(c3cc4nccnc4[nH]3)CC2)on1 — higher, 28.5%
- Cc1nn(C)cc1CN1CCN(CC2(c3ccccc3)CC2)CC1 — lower, -1.67%
- CC(=O)N1C[C@H](c2cc(O)nc(C)n2)[C@@H](c2ccccc2F)C1 — lower, -2.65%
- CN(CCc1ccccc1)Cc1cnc(C2(C)CCCCO2)nc1 (stereo unspecified) — lower, 1.38%
- COCCC(=O)N1C[C@@H](O)[C@H](N2CCN(c3ccccc3)CC2)C1 — lower, -2.33%
- Cc1n[nH]c(C)c1CC(=O)N1CC[C@@](C)(O)[C@H](Oc2ccccc2)C1 — lower, -6.16%
- Nc1ncnc2nc(C3CCN(C(=O)Cc4ccccc4)C3)ccc12 (stereo unspecified) — lower, 13.4%
- COC(=O)c1cccc(C2CNCCN2C)c1 (stereo unspecified) — lower, 12%
- Cc1nc(-c2c(C)noc2C)cc(C2CCN(S(=O)(=O)N(C)C)CC2)n1 — lower, -8.98%
- CN1CCCC1c1nnc2n1CCN(S(=O)(=O)c1ccccc1Cl)CC2 (stereo unspecified) — lower, -8.1%
- CC(=O)Nc1ccc(CN2CCCC(c3cc4ncccc4[nH]3)C2)cc1 (stereo unspecified) — lower, -5.47%
- CNc1cncc(C2CCCN2C(=O)Cn2ccnc2C)n1 (stereo unspecified) — lower, -5.3%
- N[C@@H]1CCCN(C(=O)Cc2c[nH]c3ccccc23)[C@H]1c1ccccc1F — higher, 23.2%
- Cc1cc(-c2cnc(N(C)C)nc2C2CCCCN2C(=O)C2CC2)on1 (stereo unspecified) — lower, -3.37%
- O=S(=O)(c1cccc(F)c1)N1CCCCC1c1ccn[nH]1 (stereo unspecified) — lower, -7.34%
- Cc1nc(-c2cccc(C(=O)O)c2)cc(C2CCCN(C(C)C)C2)n1 (stereo unspecified) — lower, 13.2%
- COc1ccccc1CN1CC[C@H]2[C@@H](C1)[C@H](c1ccsc1)CN2C(C)=O — higher, 18.4%
- Cn1cc(C(=O)N2CCCC(CN3CCCC3=O)C2)cn1 (stereo unspecified) — lower, -7.83%
- O=C(NC[C@]1(O)CN(Cc2ccccc2F)C[C@H]1O)c1cscn1 — lower, -8.78%
- Cc1nccn1CC1CCCN(C(=O)c2cnn(C)c2)C1 (stereo unspecified) — lower, -12.8%
- O=C(O)c1ccccc1-c1ccc(CN2CC(O)C2)cc1 — lower, -11.6%
- COc1cccc(-c2noc(C3CCN(CC(N)=O)C3)n2)c1 (stereo unspecified) — lower, -4.11%
- Cc1csc(Nc2cc(C3CCCCN3C)nc(C)n2)n1 (stereo unspecified) — lower, 0.668%
- c1ccc(CN2CCCC(c3nccnc3-n3ccnc3)C2)cc1 (stereo unspecified) — lower, -17.5%
- O=C(CO)N1CCC(c2cncc(-c3cccc(Cl)c3)n2)CC1 — lower, -3.18%
- CN(C)c1ncc(CN2CCOC(C(=O)Nc3ccccc3)C2)cn1 (stereo unspecified) — lower, -6.09%
- Nc1nc(C2CCN(C(=O)c3cscn3)CC2)cs1 — lower, -18.4%
- Cc1nnc(Nc2cccc(C3CCN(CCO)CC3)n2)s1 — lower, -13.5%
- O=C(c1ccncc1)N1CCC(c2nc(O)cc(-c3cccnc3)n2)C1 (stereo unspecified) — lower, -17.2%
- CNc1nc(C)c(C(=O)N2CCCCC2CN2CCCCCC2)s1 (stereo unspecified) — lower, -17.9%
- COCC(=O)N(C)Cc1nc(N2CCCC2)ncc1-c1ccncc1 — lower, 13.6%
- COc1ccc(Cn2c(C3CCNCC3)cc3cccnc32)cc1 — lower, 3.16%
- O[C@@H]1CN(Cc2ccc(F)c(F)c2)CC[C@H]1NCc1ccccn1 — higher, 22.5%
- CN(C)Cc1cnc(C2CCN(C(=O)c3ccccc3F)C2)[nH]1 (stereo unspecified) — lower, -3.2%
- CN(Cc1nc(N2CCCC2)ncc1-c1ccncc1)C(=O)C(C)(C)C — lower, -2.37%
- CC1(C(=O)N2CCOCC2)CNCCO1 (stereo unspecified) — lower, -7.18%
- CNCC(=O)N1CCCC(c2nccnc2Oc2cccc(F)c2)C1 (stereo unspecified) — lower, -10.3%
- Cc1ccc(CNC(=O)CN2CCN(CC(O)C3CC3)CC2)cc1 (stereo unspecified) — lower, -8.6%
- Cc1ccc(CNC(=O)CN2CCN(CC(O)c3ccco3)CC2)cc1 (stereo unspecified) — higher, 29.2%
